# Laboratory results: PMC6151459, “Targeting PDE10A GAF Domain with Small Molecules: A Way for Allosteric Modulation with Anti-Inflammatory Effects” (Molecules : A Journal of Synthetic Chemistry and Natural …, 2017)
# Tested on: PDE10A
# Assay: not given
# Parameters: method as in PMID 21705115
# Details: reference compound; cited from earlier work
row,Compound,IC50 [µM]
1,COc1ccc(Cc2nccc3cc(OC)c(OC)cc23)cc1OC [Papaverine],0.019

# Molecular target: T1, human recombinant PDE10A2 (Homo sapiens, UniProt Q9Y233)
# T1 construct: These compounds were tested against recombinant human full-length isoenzyme PDE10A; purchased Calbiochem 524739
# T1 sequence (Q9Y233 267-1055): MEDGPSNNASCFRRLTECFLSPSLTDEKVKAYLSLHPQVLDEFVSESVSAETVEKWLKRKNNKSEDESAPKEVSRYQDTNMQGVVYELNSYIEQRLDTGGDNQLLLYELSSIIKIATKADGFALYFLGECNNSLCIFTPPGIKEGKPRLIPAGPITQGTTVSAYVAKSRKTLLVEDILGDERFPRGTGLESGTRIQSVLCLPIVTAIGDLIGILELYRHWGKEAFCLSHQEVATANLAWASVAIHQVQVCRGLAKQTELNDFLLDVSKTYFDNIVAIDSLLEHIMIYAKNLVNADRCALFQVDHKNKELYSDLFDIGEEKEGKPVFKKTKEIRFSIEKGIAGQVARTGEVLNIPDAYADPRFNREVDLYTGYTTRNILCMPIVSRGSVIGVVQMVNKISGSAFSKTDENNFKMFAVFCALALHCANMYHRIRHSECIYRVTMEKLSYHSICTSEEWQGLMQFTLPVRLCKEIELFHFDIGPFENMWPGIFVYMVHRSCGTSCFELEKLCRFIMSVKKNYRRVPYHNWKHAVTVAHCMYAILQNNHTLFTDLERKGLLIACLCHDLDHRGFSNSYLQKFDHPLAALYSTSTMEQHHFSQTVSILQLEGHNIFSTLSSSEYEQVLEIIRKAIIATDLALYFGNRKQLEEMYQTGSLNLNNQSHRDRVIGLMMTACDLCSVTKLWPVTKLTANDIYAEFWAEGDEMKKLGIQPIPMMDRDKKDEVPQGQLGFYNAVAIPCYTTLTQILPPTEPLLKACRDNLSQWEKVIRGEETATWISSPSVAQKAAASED
# Assay: Radiometric phosphodiesterase inhibition assay (SPA, [3H]cAMP)
# Assay type: biochemical
# Details: fixed compound concentration of 10 µM; read-out: percentage of inhibition of PDE10A
# Procedure: The methodology used for measuring human recombinant PDE10A2 activity was based in a Scintillation Proximity Assay (SPA) from Perkin Elmer (TRKQ7090).
# After the incubation time, 50 µL of a solution of SPA-beads (approximately 1 mg per well) were added to each well and the plate was shaken for 1 h at room temperature. Finally, beads were settled for 30 min and radioactivity was detected in a Microbeta Trilux reader (Perkin Elmer, Shelton, CT, USA).
# IC50 values were calculated by non-linear regression fitting using the GraphPad Prism. Data (radioactivity vs. log concentration) was fitted to a sigmoidal dose-response equation: Y = Bottom + (Top-Bottom)/(1 + 10^[…]), where Bottom and Top were the minimum and maximal inhibition for PDE, respectively, IC50 was the concentration of the compound that inhibited the PDE activity in a 50%, and n was the slope of the concentration-response curve.
row,Compound,inhibition at 10 µM [%]
1,O=C(Cc1ccccc1)Sc1ncnc2[nH]cnc12 [Compound 2],40
2,O=C(O)COC(=O)CNC(=O)c1ccccc1 [Compound 3],7
3,Cc1ccc(-n2nc(C(C)(C)C)cc2N)cc1 [Compound 9],3
4,CC(=O)NNC(=O)c1c(O)n(C)c2ccccc2c1=O [Compound 10],2

# Further lines, results first:
row,inhibition at 10 µM [%],Compound
1,44,O=C(Cc1cccc(Cl)c1)Nc1nc2ccccc2s1 [Compound 11]
2,3,O=S1(=O)N=C(O)c2cc(-c3ccccc3)sc2N1 [Compound 12]
3,15,O=Cc1nc(-c2ccc(Cl)cc2)ns1 [Compound 13]
4,24,CC(=O)C1=C(c2c(C)[nH]c3ccccc23)C(=O)NC1=O [Compound 14]

# Same assay, conditions: recombinant human full-length PDE10A
row,Compound,IC50 [µM]
1,CC(=O)C1=C(c2ccc(C#N)cc2)C(=O)NC1=O [Compound 1],4.6
2,CC(=O)C1=C(c2c[nH]c3ccccc23)C(=O)NC1=O [Compound 4],10.2
3,COc1ccc(-c2n/c(=N/Cc3cccnc3)sn2-c2ccccc2)cc1 [Compound 5],1.8
4,CC(=O)C1=C(c2c[nH]c3ncccc23)C(=O)NC1=O [Compound 7],8.2

# Next, values leading:
row,IC50 [µM],Compound
1,6.5,CC(=O)C1=C(c2cn(C)c3ncccc23)C(=O)NC1=O [Compound 15]
2,2.4,O=C(CBr)C1=C(c2c[nH]c3ccccc23)C(=O)NC1=O [Compound 16]
3,8.2,CC(=O)C1=C(c2cn(C)c3ccccc23)C(=O)NC1=O [Compound 17]
4,2.9,Cn1cc(C2=C(C(=O)CBr)C(=O)NC2=O)c2ccccc21 [Compound 18]

# Tested on: Raw 264.7 cells
# Assay: Inhibition of nitrite production in LPS-stimulated murine macrophages (Griess reaction)
# Assay type: cell-based
# Details: inhibitors 10 μM, 1 h pretreatment, LPS 10 μg mL−1, 24 h, versus LPS-treated cells
# From the text: Finally, to explore the anti-inflammatory potential of the new allosteric PDE10A inhibitors here described, a cell-based assay was used. We have determined differences in nitrite production of Raw 264.7 cells after they were damaged with bacterial lipopolysaccharide (LPS) and treated with selected inhibitors. First, the effect of the compounds on cell viability was examined at various concentrations showing […] significant cytotoxic effect in the present experiments (data not shown).
# Figure 4 Raw 264.7 cells were incubated for 24 h with lipopolysaccharide (LPS; 10 μg mL^−1) in the absence or presence of various Phosphodiesterase (PDE) inhibitors (10 μM), and the production of nitrite was evaluated by the Griess reaction. Cells were pretreated with inhibitors for 1 h before lipopolysaccharide (LPS) stimulation. Values represent the mean ± SD from two independent experiments. *: p < 0.05; **: p < 0.01 versus LPS-treated cells.
# The content of nitrite, one of the end products of NO oxidation, was monitored by a procedure based on the diazotidation of nitrite by sulfanilic acid (Griess reaction). […] The absorbance (520 nm) of the mixture was measured on a microplate reader. The concentration of nitrite was calculated with the linear equation derived from the standard curve generated by known concentrations of sodium nitrite.
row,Compound,nitrite production
1,CC(=O)C1=C(c2c[nH]c3ccccc23)C(=O)NC1=O [Compound 4],significantly decreased
2,COc1ccc(-c2n/c(=N/Cc3cccnc3)sn2-c2ccccc2)cc1 [Compound 5],significantly decreased
